Results on six compounds are retold here after ChEMBL document CHEMBL3392982, “Synthesis and membrane-protective activity of novel derivatives of α-mangostin at the C-4 position” (Bioorg Med Chem Lett, 2015).

Active and inactive are the calls of the source. The rule behind the calls is not given here.

A short description of series [1]: Toxicity in mouse erythrocytes assessed as induction of hemolysis at 10 and 30 uM incubated for 5 hrs. The series is classed as cell-based. Particulars: erythrocyte.
The subject of series [2] is Erythrocyte. Description: Inhibition of H2O2-induced oxyhemoglobin oxidation in mouse erythrocytes assessed as ferrylHb/oxyHb ratio level at 1 uM pre-incubated for 30 mins before H2O2 injection and measured 5 hrs post H2O2 injection. The series is classed as functional. Also noted: scale not given: the % may be the effect or the level left.
The subject of series [3] is Erythrocyte. Description: Inhibition of H2O2-induced oxyhemoglobin oxidation in mouse erythrocytes assessed as metHb/oxyHb ratio level at 30 uM pre-incubated for 30 mins before H2O2 injection and measured 5 hrs post H2O2 injection. In kind it is functional. Also noted: scale not given: the % may be the effect or the level left.
The subject of series [4] is Erythrocyte. The experiment in a line: Inhibition of H2O2-induced oxyhemoglobin oxidation in mouse erythrocytes assessed as ferrylHb/oxyHb ratio level at 10 uM pre-incubated for 30 mins before H2O2 injection and measured 5 hrs post H2O2 injection. The series is classed as functional. The arrangement: scale not given: the % may be the effect or the level left.
The test system of series [5] is Erythrocyte. The experiment in a line: Inhibition of H2O2-induced oxyhemoglobin oxidation in mouse erythrocytes assessed as metHb/oxyHb ratio level at 1 uM pre-incubated for 30 mins before H2O2 injection and measured 5 hrs post H2O2 injection. In kind it is functional. Also noted: scale not given: the % may be the effect or the level left.
The subject of series [6] is Erythrocyte. The experiment in a line: Membrane-protective activity in mouse erythrocytes assessed as inhibition of H2O2-induced hemolysis at 30 uM pre-incubated for 30 mins before H2O2 injection and measured 5 hrs post H2O2 injection. The series is classed as functional, cell-based.
Series [7] concerns Erythrocyte. The experiment in a line: Antioxidant activity in mouse erythrocytes assessed as inhibition of H2O2-induced secondary lipid peroxidation at 1 to 30 uM pre-incubated for 30 mins before H2O2 injection and measured 4 hrs post H2O2 injection by TBARS detection based spectrophotometry. In kind it is functional, cell-based.
Series [8] deals with Erythrocyte. Description: Inhibition of H2O2-induced oxyhemoglobin oxidation in mouse erythrocytes assessed as ferrylHb/oxyHb ratio level at 30 uM pre-incubated for 30 mins before H2O2 injection and measured 5 hrs post H2O2 injection. In kind it is functional. The arrangement: scale not given: the % may be the effect or the level left.
The subject of series [9] is Erythrocyte. The experiment in a line: Inhibition of H2O2-induced oxyhemoglobin oxidation in mouse erythrocytes assessed as metHb/oxyHb ratio level at 10 uM pre-incubated for 30 mins before H2O2 injection and measured 5 hrs post H2O2 injection. The arrangement: scale not given: the % may be the effect or the level left. In kind it is functional.
Series [10] is described as follows: Toxicity in H2O2-induced mouse erythrocytes assessed as induction of hemolysis at 30 uM pre-incubated for 30 mins before H2O2 injection and measured 5 hrs post H2O2 injection. The series is classed as cell-based. To be noted: erythrocyte.
Series [11] deals with Erythrocyte. The experiment in a line: Membrane-protective activity in mouse erythrocytes assessed as inhibition of H2O2-induced hemolysis pre-incubated for 30 mins before H2O2 injection and measured 5 hrs post H2O2 injection. The series is classed as functional, cell-based.
A short description of series [12]: Toxicity in rabbit erythrocytes assessed as induction of cell death at 7.8 to 15.6 uM within 1 hr. In kind it is cell-based, Oryctolagus cuniculus, Erythrocyte. Particulars: read-out: Activity.
The nature of series [13]: Toxicity in rabbit erythrocytes assessed as induction of hemolysis at 10 uM within 1 hr. The series is classed as cell-based, Oryctolagus cuniculus, Erythrocyte. To be noted: read-out: Activity.
Series [14] has as its system Erythrocyte. The experiment in a line: Membrane-protective activity in mouse erythrocytes assessed as inhibition of H2O2-induced hemolysis at 10 to 30 uM pre-incubated for 30 mins before H2O2 injection and measured 5 hrs post H2O2 injection. In kind it is functional, cell-based.
Series [15] deals with Erythrocyte. The experiment in a line: Membrane-protective activity in mouse erythrocytes assessed as inhibition of H2O2-induced hemolysis at 1 uM pre-incubated for 30 mins before H2O2 injection and measured 5 hrs post H2O2 injection. The series is classed as functional, cell-based.

Consider `COc1c(O)cc2oc3c(Cc4cc(C(C)(C)C)c(O)c(C(C)(C)C)c4)c(O)c(CC=C(C)C)c(O)c3c(=O)c2c1CC=C(C)C`, for which the Activity result in series [1] was “Non-toxic”; with Erythrocyte [2], 81%; in the series with Erythrocyte [3], 35.5%; in the series on Erythrocyte [4], 53.3%; in the series with Erythrocyte [5], 98.4%; in the series on Erythrocyte [8], 22.5%. Moreover, the Activity with Erythrocyte [9] is recorded as 63.8%. For the same compound, the outcome in the series on Erythrocyte [6] and in the series on Erythrocyte [7] was Active.

Take `COc1c(O)cc2oc3cc(O)c(CC=C(C)C)c(O)c3c(=O)c2c1CC=C(C)C` [MANGOSTIN]: the Activity entry in series [1] is “Toxic”; in series [10], “Toxic”; with Erythrocyte [11], “Dose-dependent effect”; in the series with Erythrocyte [2], 55.3%; in the series on Erythrocyte [4], 39.5%; in the series on Erythrocyte [5] it was 44.7%. Moreover, the Activity with Erythrocyte [9] worked out at 45.5%. Further, the outcome in the series with Erythrocyte [7] was Active. In addition, in series [12], the hemolysis at 1 h, up to 15.6 µM was 10.5%. For the same compound, the hemolysis at 1 h, 10 µM in [13] came to 10.1%.

For `COc1c(O)cc2oc3c(CN4CCCCC4)c(O)c(CC=C(C)C)c(O)c3c(=O)c2c1CC=C(C)C`, the Activity entry in series [1] is on record as “Non-toxic”; in the series with Erythrocyte [2], 58%; in the series with Erythrocyte [3], 24%; with Erythrocyte [4] it was 32.3%; in the series with Erythrocyte [5], 56.9%; in the series on Erythrocyte [8], 18.5%. Further, the Activity in the series with Erythrocyte [9] came to 40.7%. Moreover, the result with Erythrocyte [14] and with Erythrocyte [7] was Active.

`COc1c(O)cc2oc3c(CN(C)C)c(O)c(CC=C(C)C)c(O)c3c(=O)c2c1CC=C(C)C`: the Activity entry in [1] is “Non-toxic”; in series [10], “Toxic”; with Erythrocyte [11], “Dose-dependent effect”; in the series on Erythrocyte [2], 67.4%; in the series with Erythrocyte [3], 196.4%; in the series with Erythrocyte [4], 35.5%. The Activity is 65.8% in the series with Erythrocyte [5], 162.3% in the series on Erythrocyte [8] and 37.5% in the series on Erythrocyte [9]. In addition, in the series on Erythrocyte [7], the result was Active.

For the compound `COc1c(O)cc2oc3c(CN4CCOCC4)c(O)c(CC=C(C)C)c(O)c3c(=O)c2c1CC=C(C)C`, the Activity entry was “Non-toxic” in series [1]; 91.8% in the series on Erythrocyte [2]; 27.9% with Erythrocyte [3]; 37.1% with Erythrocyte [4]; 112.5% in the series with Erythrocyte [5]; 25.2% in the series with Erythrocyte [8]. The Activity in the series on Erythrocyte [9] is given as 42.7%. Further, the result in the series on Erythrocyte [14] and with Erythrocyte [7] was Active.

For the compound `COc1c(O)cc2oc3c(Cc4cc([C@H]5C[C@@H]6CC[C@@]5(C)C6(C)C)c(O)c([C@@H]5C[C@H]6CC[C@]5(C)C6(C)C)c4)c(O)c(CC=C(C)C)c(O)c3c(=O)c2c1CC=C(C)C`, the Activity result is reported as “Non-toxic” in [1]; 61.5% with Erythrocyte [2]; 105.6% in the series with Erythrocyte [3]; 70.9% in the series with Erythrocyte [4]; 60.1% in the series on Erythrocyte [5]; 64.2% with Erythrocyte [8]. In addition, in the series on Erythrocyte [9], the Activity was found to be 77.3%. The result with Erythrocyte [7] and in the series with Erythrocyte [15] was Active.
